Data as given in publication PMC9819389, “Antiandrogenic and Estrogenic Activity Evaluation of Oxygenated and Nitrated Polycyclic Aromatic Hydrocarbons Using Chemically Activated Luciferase Expression Assays” (International Journal of Environmental Research and Public …, 2022).

Tests used:
[1] = tested on: U2OS-luc cells; test: MTT cell viability (cytotoxicity) assay; details: cell viability <80% considered cytotoxic
Protocol: (§1) All measurements were conducted in triplicate wells. They were repeated twice and trice in the AR- and ER-CALUX assays, respectively, for each concentration in dose–response curve. […] Cell viability was confirmed using 3-(4,5-dimethylthiazol-2-yl)-2,5-diphenyltetrazolium bromide (MTT) assay. If the cell viability was <80% in the positive control, the corresponding exposure dose was considered cytotoxic and excluded from the calculation.

[2] = biological target: T1, human AR (Homo sapiens, UniProt P10275); design: method as in Otsuki et al. [38]; key: +, positive; details: previous study; ref Otsuki et al. [38]; cited from earlier work
T1 sequence (P10275 1-920): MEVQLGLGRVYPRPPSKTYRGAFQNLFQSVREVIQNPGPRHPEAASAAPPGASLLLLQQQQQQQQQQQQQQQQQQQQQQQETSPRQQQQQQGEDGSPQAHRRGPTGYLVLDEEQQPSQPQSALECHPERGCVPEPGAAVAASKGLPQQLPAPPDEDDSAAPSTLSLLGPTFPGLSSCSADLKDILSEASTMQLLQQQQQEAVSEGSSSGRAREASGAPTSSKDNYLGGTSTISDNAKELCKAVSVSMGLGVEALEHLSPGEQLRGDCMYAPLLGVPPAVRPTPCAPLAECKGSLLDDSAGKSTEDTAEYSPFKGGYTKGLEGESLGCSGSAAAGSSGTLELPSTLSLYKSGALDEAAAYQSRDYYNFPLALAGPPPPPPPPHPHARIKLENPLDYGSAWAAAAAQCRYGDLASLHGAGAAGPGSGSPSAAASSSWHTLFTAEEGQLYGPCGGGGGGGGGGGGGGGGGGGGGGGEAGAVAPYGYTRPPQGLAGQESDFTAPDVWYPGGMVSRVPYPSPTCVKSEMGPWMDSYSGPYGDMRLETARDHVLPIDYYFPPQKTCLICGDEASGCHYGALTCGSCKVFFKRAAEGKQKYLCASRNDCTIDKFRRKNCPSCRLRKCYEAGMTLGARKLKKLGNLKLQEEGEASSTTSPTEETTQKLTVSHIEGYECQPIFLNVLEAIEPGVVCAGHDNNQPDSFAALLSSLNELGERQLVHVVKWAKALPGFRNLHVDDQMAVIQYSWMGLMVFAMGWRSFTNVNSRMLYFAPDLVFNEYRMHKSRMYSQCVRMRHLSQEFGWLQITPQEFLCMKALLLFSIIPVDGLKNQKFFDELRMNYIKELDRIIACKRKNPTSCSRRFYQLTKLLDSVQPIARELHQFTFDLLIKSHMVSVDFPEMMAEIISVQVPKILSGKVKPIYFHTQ

[3] = tested on: thyroid receptor (TR) α; design: method as in PMID 31071665; details: TRα activation; cited from earlier work
[4] = biological target: T1, human AR; test: AR-CALUX assay, antiandrogenic (AR antagonistic) activity, U2OS-luc cells; assay type: cell-based; design: host or cells: human U2OS-luc (osteoblastic osteosarcoma) cells; details: for inhibition of AR-mediated luciferase activity: coexposure to DHT at 10 nM (100 × EC50)
Protocol: The AR- and ER-CALUX assays for the polycyclic aromatic compounds were evaluated according to previously described methods, which used human U2OS-luc cells developed by BioDetection Systems b.v. (Amsterdam, The Netherlands). The cells are transfected stably with human AR and ER, respectively, and a luciferase reporter gene under their respective steroid receptor response elements. […] They were incubated at 37 °C in a humidified atmosphere containing 5% carbon dioxide. […] The medium was then removed, and the cells were lysed. A solution of luciferin was then added, and the luminescence intensity was measured with an ARVO™ X3 luminometer from PerkinElmer (Waltham, MA, USA). A sigmoid dose–response curve for a chemical was fitted to the Hill equation given by Equation (1) using SigmaPlot 11.0 from Systat Software Inc. (San Jose, CA, USA). y = min + (max − min)/(1 + (a1/x)^a^2)(1) where, y and x are the measured luciferase induction level and compound concentration, respectively. […] The REP values in mol base were obtained by dividing the ICs or ECs of the standard by the ICs or ECs of target compound, respectively.
as §1

Question: Which “concentration at which cytotoxicity was confirmed” value [1] does the source give for `O=C1c2ccccc2-c2ccc([N+](=O)[O-])c3cccc1c23` [3-NBAO, 3-nitro-7H-benz[de]anthracen-7-one] here?
Answer: 1 µM

Question: And the “antiandrogenic activity, Yeast” value [2]?
Answer: +

Question: What about the “REP50 to triiodothyronine (T3)” value [3] of the same compound?
Answer: 0.11

Question: And the “inhibition of AR-mediated luciferase activity” value ([4]; compound at 30 nM)?
Answer: 29%

Question: What about the “inhibition of AR-mediated luciferase activity” value ([4]; compound at 300 nM) of the same compound?
Answer: 60%

Question: And the “mode of AR inhibition” value ([4]; from coexposure to 10 nM DHT)?
Answer: noncompetitive

Question: And the IC25 ([4]; present study, 24 h exposure with 100 pM DHT (EC50 level))?
Answer: 0.0051 µM

Question: And the “REPmol (IC25)” value ([4]; present study, molar relative potency to flutamide, IC25-based)?
Answer: 23

Question: What about the IC50 ([4]; read-out: IC50) of the same compound?
Answer: 0.018 µM
